Laboratory results taken from US6797721B2, “Phorboxazole derivatives for treating cancer” (Parker Hughes Institute, priority 1999, dated 2004).

Assays:
[1] = test system: RPMI-18226 (multiple myeloma); experiment: MTT cytotoxicity assay, RPMI-18226; type: cell-based; conditions: Homo sapiens, RPMI18226
[2] = test system: NALM-6 B-lineage ALL cells; experiment: Clonogenic assay, NALM-6; type: cell-based, human; conditions: 7 days
Description: (§1) The growth-inhibiting activity of the synthetic Phorboxazole A and the synthesized derivatives was tested in clonogenic assays. Cancer cells were treated with 1 nM, 10 nM, and 100 nM doses of synthetic Phorboxazole A or derivatives of phorboxazole A. Treated cells included U373 human glioblastoma cells, NALM-6, human B-lineage acute lymphoblastic leukemia cells, and BT-20 human breast cancer cells. The cancer cells were resuspended in clonogenic medium consisting of alpha-MEM supplemented with 0.9% methylcellulose, 30% fetal bovine serum, and 50 μM 2-mercaptoethanol. Cells were plated in duplicate Petri dishes at 100,000 cells/mL/dish and cultured in a humidified 5% CO2 incubator for 7 days. Cancer cell colonies were enumerated on a grid using an inverted phase microscope of high optical resolution. Results were expressed as % inhibition of clonogenic cells at a particular concentration of the test agent using the formula:
(§2) % Inhibition=(1−Mean # of colonies [Test]/Mean # of colonies [Control]×100.

[3] = test system: U373 human glioblastoma cells; experiment: Clonogenic assay, U373; type: cell-based; conditions: 7 days
Description: as §1, §2

leukemia NALM-6 cells = experiment: Mitochondrial transmembrane potential assay (DiIC1(5) staining); type: cell-based, human; conditions: 2.5 nM, 5 nM or 10 nM, 72 hours
Description: FIG. 2 are graphs showing the effect of synthetic phorboxazole A and phorboxazole A derivatives on the mitochondrial transmembrane potentials of leukemia NALM-6 cells.
Cells were incubated with 2.5 nM, 5 nM or 10 nM of phorboxazole A, 33-O-methyl-phorboxazole A or 45,46-dehydrobromo-phorboxazole A for 72 hours, stained with DiICl (5) to assess the mitochondrial membrane potential (Δψm) and then analyzed with a cell sorter equipped with a HeNe laser.

U373 glioblastoma cells = experiment: In vitro adhesion assay to ECM proteins, U373; type: cell-based, human; conditions: laminin-, fibronectin-, and collagen-coated plates, 0.1 μM to 1 μM for 24 hours
Description: (§3) Human brain tumor cell lines U-373 MG and breast cancer cell lines BT-20 and MDA-MB-231 were obtained from American Type Culture Collection (ATCC, Rockville, Md.) and maintained in liquid culture using DMEM supplemented with 10% fetal bovine serum and antibiotics. Fibroblast conditioned medium was used as a source of chemoattractant in vitro invasion assays. Conditioned medium was prepared as described in the literature (Albini et.al., 1987, Cancer Res., 47:3239-3245).
(§4) In vitro adhesion assays were performed to (a) study the baseline adhesive properties of various breast cancer and glioblastoma cell lines and (b) evaluate the effects of phorboxazole A derivatives on the adhesive properties of breast cancer and glioblastoma cells. The plates for the adhesion assays were precoated with the extracellular matrix proteins laminin, fibronectin, or type IV collagen (each at a final concentration of 1 μg/ml in PBS) overnight at 4° C. and dried. On the day of the experiment, the wells were rehydrated and blocked with 10% bovine serum albumin in PBS for 1 hour at room temperature and used for the adhesion assays, as described below.
(§5) The effects of synthetic phorboxazole A and specific derivatives on adhesion of breast cancer and glioblastoma cells was studied. Exponentially growing cells in DMEM were incubated with phorboxazole compounds or genistein as a control at concentrations ranging from 0.1 μM to 1 μM for 24 hours in a humidified 5% CO2 atmosphere. DMSO (0.1%) was included as a vehicle control. After treatment, cells were detached from the flasks with 0.05% trypsin (Life Technologies) resuspended in DMEM, incubated at 37° C. for 2 hours to allow them to recover from the trypsinization stress and examined for their ability to adhere to plates precoated with ECM proteins.
(§6) In adhesion assays, cells were centrifuged, washed twice with serum-free DMEM, counted and resuspended in serum-free DMEM to a final concentration of 2.5×10^5 cells/ml. […] The adherent fraction was quantitated using MTT (3-[4,5-dimethylthiazol-2-yl]-2,5-diphenyltetrazolium bromide) assays. […] The absorbance of each well was measured in a microplate reader (Labsystems) at 540 nm and a reference wavelength of 690 nm.
(§7) To translate the OD540 values into the number of cells in each well, the OD540 values were compared to those on standard OD540-versus-cell number curves generated for each cell line. The adherent fractions of cells treated with phorboxazole A derivatives were compared to those of DMSO-treated control cells and the percent inhibition of adhesion was determined using the formula: [formula]
(§8) Each treatment condition was evaluated in duplicate in 3 independent experiments. The IC50 values were calculated by non-linear regression analysis. […]

[4] = test system: BT-20 breast cancer cells; experiment: In vitro adhesion assay to ECM proteins, BT-20; type: cell-based, human; conditions: laminin-, fibronectin-, and collagen-coated plates, 0.1 μM to 1 μM for 24 hours
Description: as §3, §4, §5, §6, §7, §8

[5] = test system: MDA-MB-231 breast cancer cells; experiment: In vitro adhesion assay to ECM proteins, MDA-MB-231; type: cell-based, human; conditions: laminin-, fibronectin-, and collagen-coated plates, 0.1 μM to 1 μM for 24 hours
Description: as §3, §4, §5, §6, §7, §8

C=C1C[C@@H]2C[C@@H]3C[C@@H](O)C[C@@H](O3)c3coc(n3)/C=C/C[C@H]3O[C@@H](/C(C)=C/c4coc(C[C@]5(O)C[C@H](OC)C[C@H]([C@H](O)/C=C(C)/C=C/[C@@H](C/C=C/Br)OC)O5)n4)[C@H](C)[C@@H](OC(=O)/C=C\C[C@@H](C1)O2)[C@H]3C [Compound 1, Phorboxazole A]
IC50 [1]: 0.0559 µM
Mean Number Colonies/10^4 cells ([2]; 1 nM): 270
Mean Number Colonies/10^4 cells ([2]; 10 nM): 0
Mean Number Colonies/10^4 cells ([2]; 100 nM): 0
inhibition at 0.001 µM ([2]; Homo sapiens, 168 h, 1 nM, read-out: Inhibition of clonogenic growth): 86.8%
inhibition at 0.01 µM ([2]; Homo sapiens, 168 h, 10 nM, read-out: Inhibition of clonogenic growth): > 99.9%
inhibition at 0.1 µM ([2]; Homo sapiens, 168 h, 100 nM, read-out: Inhibition of clonogenic growth): > 99.9%
Mean Number Colonies/10^4 cells ([3]; 10 nM): 378
Mean Number Colonies/10^4 cells ([3]; 100 nM): 0
inhibition at 0.01 µM ([3]; Homo sapiens, U373 MG, 168 h, 10 nM, read-out: Inhibition of clonogenic growth): 42.4%
inhibition at 0.1 µM ([3]; Homo sapiens, U373 MG, 168 h, 100 nM, read-out: Inhibition of clonogenic growth): > 99.9%
Depolarized mitochondria (mitochondrial membrane potential) (leukemia NALM-6 cells): progressive increase in depolarized mitochondria
Inhibition of cell adhesion (U373 glioblastoma cells): active
Inhibition of cell adhesion [4]: active
Inhibition of cell adhesion [5]: active
